US5070210A, “Novel ketenimines as intermediates for insecticides” (ICI Americas Inc., priority 1990, dated 1991)

Legend:
Format in all cases: in vivo
[1] = system: Maize weevil [Sitophilus Zeamais (Motschulsky)]; experiment: Maize weevil insecticidal test; conditions: adult weevils, percent in solution; 48 hours
Procedure, shortened: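 LC50, in percent of compound in solution, was derived from dosage-mortality curves after 48 h at about 25 °C. Ten adult weevils per container fed on four corn seeds briefly immersed in acetone:water (50:50) solutions of up to 0.01% and dried.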

[2] = system: Tobacco Budworm [Heliothis virescens (Fabricius)] larvae; experiment: Tobacco budworm contact test; conditions: second-instar larvae, percent in solution, 5 days
Procedure, shortened: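 Cotton cotyledons dipped 2–3 s in compound in 50-50 acetone-water, dried, then infested with 5 second-instar larvae and held 5 days at high humidity. Mortality scored; LC50 from dosage-mortality curves, expressed as percent compound in solution, concentrations from 0.1% downward.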

[3] = system: Beet Armyworm (Spodoptera exigua); experiment: Beet armyworm insecticidal test; conditions: second-instar larvae, percent in solution; five days
Method: The compounds in Tables 1 and 2 above were tested for insecticidal activity using the following testing procedures. LC50 values, based on the results of these tests and calculated according to dosage-mortality curves, are expressed in Table 3.
Beet Armyworm (Spodoptera exigua):
Test compounds were diluted in a 50-50 acetone-water solution. Young leaves of sugar beets (Beta vulgaris) were immersed in the test solutions for 2-3 seconds and placed on a wire screen to dry. The dried leaves were placed in petri dishes containing a moistened filter paper and infested with five second-instar beet armyworm larvae. The dishes were placed in a high humidity chamber. Mortality of the larvae was recorded five days later. Test concentrations ranged from 0.1% downward. The LC-50 values are expressed below in Table 3 under the heading "BAW" in terms of percent of the test compound in solution.

[4] = system: Housefly [Musca domestica]; experiment: Housefly insecticidal test; conditions: μg per 25 female flies; mortality after 48 hours
Procedure, shortened: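 LC50, as μg compound per 25 female flies, comes from dosage-mortality curves with doses from 100 μg downward. Residues were made by evaporating acetone plus 0.01% peanut oil in dishes, onto which 1-2-day-old females were caged; deaths were counted after 48 hours.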

[5] = system: Cabbage Looper [Trichoplusia ni (Hubner)]; experiment: Cabbage looper insecticidal test; conditions: second-instar larvae, percent in solution; 3-5 days
Procedure, shortened: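 Steps: dilute compound in 50-50 acetone-water from 0.1% downward; immerse cotyledon pieces 2-3 s and dry; place in humid petri dishes with five second-instar larvae; record mortality at 3-5 days. Dosage-mortality curves yield LC50 as percent in solution.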

[6] = system: Aster Leafhopper [Macrosteles fascifrens (Stal)]; experiment: Aster leafhopper insecticidal test; conditions: adults/nymphs, percent in solution; 48 hours
Procedure, shortened: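 LC50 values, given as percent of test compound in the dip solution, were derived from dosage-mortality curves over concentrations from 0.05% downward. Mortality was counted 48 hours after ten leafhopper adults/nymphs were enclosed on treated seedlings. The seedlings were oats, about 10 cm tall, briefly dipped in 50-50 acetone-water.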

[7] = system: Tobacco Budworm [Heliothis virescens (Fabricius)] eggs; experiment: Tobacco budworm egg test; conditions: 2-day old eggs, percent in solution
Procedure, shortened: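 Mortality of dipped eggs served as read-out, recorded after untreated controls hatched and began feeding. Treatments used acetone solutions from 0.1% downward, with eggs incubated at 78° F; LC50 is expressed as percent of compound in the solution.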

| SMILES | LC50, MW [1] [%] | LC50, TBW, C (TBW-C) [2] [%] | LC50, BAW [3] [%] | LC50, HF [4] [µg] | LC50, CL [5] [%] | LC50, LH [6] [%] | LC50, TBW, E (TBW-E) [7] [%] |
| --- | --- | --- | --- | --- | --- | --- | --- |
| Clc1cccc(N=C(OCc2cccc(Oc3ccccc3)c2)C(Cl)Cl)c1 [Compound 1] | > 0.01 | 0.06 | 0.009 | 4.8 | 0.005 | > 0.05 | 0.05 |
| CC(Cl)(Cl)C(=Nc1ccc(Cl)cc1)OCc1cccc(Oc2ccccc2)c1 [Compound 3] | > 0.01 | 0.009 | 0.015 | 50 | 0.012 | > 0.05 | > 0.1 |
| CC(C)C(=Nc1ccc(Cl)c(Cl)c1)OCc1cccc(Oc2ccccc2)c1 [Compound 9] | > 0.01 | 0.0008 | 0.0005 | 14 | 0.001 | 0.0003 | 0.02 |
| Clc1ccc(N=C(OCc2cccc(Oc3ccccc3)c2)C(Cl)Cl)cc1 [Compound 29] | > 0.01 | 0.001 | 0.003 | 5 | 0.002 | 0.003 | 0.01 |
| ClCC(=Nc1ccc(Cl)cc1)OCc1cccc(Oc2ccccc2)c1 [Compound 31] | > 0.01 | 0.01 | 0.08 | > 100 | 0.05 | > 0.05 | > 0.1 |
| Clc1ccc(N=C(OCc2cccc(Oc3ccccc3)c2)C2CC2)cc1 [Compound 32] | > 0.01 | 0.006 | 0.03 | 37 | 0.003 | > 0.05 | 0.1 |
| CC(Cl)C(=Nc1ccc(Cl)cc1)OCc1cccc(Oc2ccccc2)c1 (stereo not drawn) [Compound 33] | > 0.01 | 0.0025 | 0.02 | 17 | 0.01 | > 0.05 | > 0.1 |
| CC(=Nc1ccccc1)OCc1cccc(Oc2ccccc2)c1 [Compound 42] | > 0.01 | > 0.1 | > 0.1 | 45 | > 0.1 | > 0.05 | > 0.1 |
| CC(C)C(=Nc1ccc(F)cc1F)OCc1cccc(Oc2ccccc2)c1 [Compound 52] |  | 0.004 | 0.01 | 8 | 0.0025 | 0.001 | > 0.05 |
| CC(C)C(=Nc1ccc(F)c(F)c1)OCc1cccc(Oc2ccccc2)c1 [Compound 54] |  | 0.001 | 0.004 | 3.5 | 0.0003 | 0.00015 | 0.017 |
| FC(F)(F)c1ccc(N=C(OCc2cccc(Oc3ccccc3)c2)C(Cl)Cl)cc1 [Compound 61] | > 0.01 | 0.03 | 0.002 | 29 | 0.001 | > 0.05 | 0.03 |
| FC(F)(F)c1ccc(N=C(OCc2cccc(Oc3ccccc3)c2)C2CC2)cc1 [Compound 62] | > 0.01 | 0.0015 | 0.02 | 20 | 0.005 | > 0.05 | 0.025 |
| FC(F)(F)Oc1ccc(N=C(OCc2cccc(Oc3ccccc3)c2)C(Cl)Cl)cc1 [Compound 64] | > 0.01 | 0.1 | 0.0025 | 11 | 0.0025 | > 0.05 | 0.03 |
| FC(F)(F)c1ccc(N=C(OCc2cccc(Oc3ccccc3)c2)C2CC2)c(Cl)c1 [Compound 65] |  | 0.1 | > 0.1 | > 100 | < 0.01 | > 0.05 | > 0.1 |
| CC(C)C(=Nc1ccc(Cl)c(C(F)(F)F)c1)OCc1cccc(Oc2ccccc2)c1 [Compound 71] |  | 0.0008 | 0.0004 | 50 | 0.0006 | 0.002 | 0.065 |
| CC(C)C(=Nc1cc(F)cc(C(F)(F)F)c1)OCc1cccc(Oc2ccccc2)c1 [Compound 77] | > 0.01 | 0.0004 | 0.004 | 10 | 0.0005 | 0.0002 | 0.03 |
| CC(C)C(=Nc1cccc(C(F)(F)F)c1)OCc1ccc(F)c(Oc2ccccc2)c1 [Compound 80] |  | 0.00075 | 0.0018 | 4.5 | 0.0003 | 0.0001 | 0.005 |
| CC(C)C(=Nc1ccc2c(c1)OC(F)(F)O2)OCc1ccc(F)c(Oc2ccc(F)cc2)c1 [Compound 284] | 0.0075 | 0.0002 | 0.0025 | 39 | 0.00005 | 0.0003 |  |
